Measurements: publication PMC9655119, “Sustained Activation of CLR/RAMP Receptors by Gel-Forming Agonists” (International Journal of Molecular Sciences, 2022)
Like-named read-outs stand apart in the source and are kept apart here. Positions of bridges follow the written chain, without caps; N, C: chain ends. Non-standard residues stand in square brackets, D forms with d. Residues, ends and D or L forms follow the SMILES beside them. *: point of attachment. Palmitoyl = CCCCCCCCCCCCCCCC(=O)*; AEEA = NCCOCCOCC(=O)O

Legend:
human CLR/RAMP1 = target: T1, human CLR/RAMP1 (Homo sapiens, UniProt O60894+Q16602); test: CLR/RAMP1 receptor-activation assay (DiscoverX cAMP Hunter, HitHunter cAMP XS+); assay type: cell-based; settings: for Emax: read-out: CLR/RAMP1 Max Activity
T1 construct: host or cells: 1321N1 cells (cAMP Hunter cell line)
Procedure: (§1) The bioactivity of peptide analogs was studied using CLR/RAMP1, CLR/RAMP2, and CLR/RAMP3 assays by DiscoveRx (Fremont, CA, USA) in cells that stably express human CLR/RAMP1 (1321N1 cells), CLR/RAMP2 (CHO-K1 cells), or CLR/RAMP3 (CHO-K1 cells). The dose-dependent stimulatory effect of agonists was studied in duplicate, at 10 different concentrations. Determination of the half-maximal effective concentration (EC50) was performed using a 10-point dose-response curves. The starting concentration was 1.0 μM, and it was serially diluted 3-fold, in DMSO.
Cells were seeded in a total volume of 20 μL into 384-well microplates, and the activity was determined using the DiscoverX HitHunter cAMP XS + assay. Before the assay, media was aspirated from cells and replaced with 15 μL 2:1 HBSS/10 mM Hepes: cAMP XS + Ab reagent. Intermediate dilution of samples was performed to generate 4X sample in assay buffer, and 5 μL of the 4X sample was added to cells and incubated at 37°C. Vehicle concentration was 1%.
The chemiluminescent signal was read with a PerkinElmer instrument.

human CLR/RAMP2 = target: T2, human CLR/RAMP2 (Homo sapiens, UniProt O60895+Q16602); test: CLR/RAMP2 receptor-activation assay (PathHunter β-Arrestin); assay type: cell-based; settings: for Emax: read-out: CLR/RAMP2 Max Activity
T2 construct: host or cells: CHO-K1 cells (PathHunter β-Arrestin cell line)
Procedure: as §1
In this assay, the CLR was fused in frame with a small enzyme donor fragment ProLink™ (PK). The receptor was co-expressed with a fusion protein of β-arrestin and an N-terminal deletion mutant of β-galactosidase (i.e., enzyme acceptor). Activation of the CLR/RAMP2 receptor stimulated the binding of β-arrestin to the PK-tagged receptor and led to an increase in enzyme activities which can then be measured with the PathHunter detection reagents. PathHunter cell lines were seeded in a total volume of 20 μL into 384-well microplates and incubated at 37 °C prior to the assay. Intermediate dilution of samples was performed to generate 5X samples in the assay buffer. A 5 μL aliquot of 5X sample was added to cells and incubated at 37 °C for 90 min. Vehicle concentration was 1%.

[1] = percentage of positive control β-CGRP

T1 sequence (Q16602 23-461): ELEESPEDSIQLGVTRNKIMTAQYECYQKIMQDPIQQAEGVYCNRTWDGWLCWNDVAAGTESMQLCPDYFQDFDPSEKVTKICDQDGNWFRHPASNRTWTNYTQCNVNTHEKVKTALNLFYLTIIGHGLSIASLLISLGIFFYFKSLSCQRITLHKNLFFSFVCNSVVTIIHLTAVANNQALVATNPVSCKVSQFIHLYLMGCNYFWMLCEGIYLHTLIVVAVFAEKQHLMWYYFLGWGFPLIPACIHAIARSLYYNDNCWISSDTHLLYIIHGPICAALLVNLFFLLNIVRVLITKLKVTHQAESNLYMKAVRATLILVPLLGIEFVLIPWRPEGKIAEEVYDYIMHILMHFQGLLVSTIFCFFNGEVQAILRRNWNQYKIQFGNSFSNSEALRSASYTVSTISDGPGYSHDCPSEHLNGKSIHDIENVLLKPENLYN
T1 sequence (O60894 27-148): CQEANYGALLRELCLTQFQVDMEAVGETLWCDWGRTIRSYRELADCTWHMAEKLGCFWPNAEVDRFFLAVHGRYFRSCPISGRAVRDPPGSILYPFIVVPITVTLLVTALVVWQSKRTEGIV
T2 sequence (Q16602 23-461): as the sequence (Q16602 23-461) above
T2 sequence (O60895 43-175): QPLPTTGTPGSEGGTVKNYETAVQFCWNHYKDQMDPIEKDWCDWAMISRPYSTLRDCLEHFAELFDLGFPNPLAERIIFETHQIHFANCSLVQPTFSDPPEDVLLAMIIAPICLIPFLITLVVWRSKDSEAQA

SMILES | Emax (human CLR/RAMP1) [%] | Emax (human CLR/RAMP2) [%] | EC50 (human CLR/RAMP1; 1321N1 cells stably expressing human CLR/RAMP1, cAMP read-out, 10-point dose-response in duplicate, start 1.0 μM, 3-fold serial dilution in DMSO) [nM] | Emax (human CLR/RAMP1; [1]) [%] | EC50 (human CLR/RAMP2; CHO-K1 cells stably expressing human CLR/RAMP2, β-arrestin recruitment, 90 min at 37 °C, 10-point dose-response in duplicate, start 1.0 μM, 3-fold dilution in DMSO) [nM] | Emax (human CLR/RAMP2; percentage of positive control ADM1-52) [%]
CCCCCCCCCCCCCCCC(=O)NCCCC[C@H](NC(=O)COCCOCCN)C(=O)N[C@H](C(=O)N[C@@H](CCCCN)C(=O)N[C@@H](CCCCN)C(=O)N[C@H](C(=O)N[C@@H](CC(C)C)C(=O)N[C@@H](CCCNC(=N)N)C(=O)N[C@H](C(=O)NCC(=O)N[C@H]1CSSC[C@@H](C(=O)N[C@H](C(=O)N[C@H](C(=O)N[C@@H](CCC(N)=O)C(=O)N[C@@H](CCCCN)C(=O)N[C@@H](CC(C)C)C(=O)N[C@@H](C)C(=O)N[C@@H](Cc2c[nH]cn2)C(=O)N[C@@H](CCC(N)=O)C(=O)N[C@H](C(=O)N[C@@H](Cc2ccc(O)cc2)C(=O)N[C@@H](CCC(N)=O)C(=O)N[C@@H](Cc2ccccc2)C(=O)N[C@H](C(=O)N[C@@H](CC(=O)O)C(=O)N[C@@H](CCCCN)C(=O)N[C@@H](CC(=O)O)C(=O)N[C@@H](CCCCN)C(=O)N[C@@H](CC(=O)O)C(=O)N[C@@H](CC(N)=O)C(=O)N[C@H](C(=O)N[C@@H](C)C(=O)N2CCC[C@H]2C(=O)N[C@@H](CCCNC(=N)N)C(=O)N[C@@H](CO)C(=O)N[C@@H](CCCCN)C(=O)N[C@H](C(=O)N[C@@H](CO)C(=O)N2CCC[C@H]2C(=O)N[C@@H](CCC(N)=O)C(=O)NCC(=O)N[C@@H](Cc2ccc(O)cc2)C(N)=O)[C@@H](C)CC)C(C)C)[C@@H](C)O)[C@@H](C)CC)C(C)C)[C@@H](C)O)NC(=O)[C@H]([C@@H](C)O)NC(=O)CNC(=O)[C@H](Cc2ccccc2)NC(=O)[C@H](CCCNC(=N)N)NC1=O)[C@@H](C)O)[C@@H](C)O)[C@@H](C)O [Analog C-8] | 69 | 68 | – | – | – | –
CCCCCCCCCCCCCCCC(=O)NCCCC[C@H](NC(=O)COCCOCCN)C(=O)NCC(=O)N[C@H]1CSSC[C@@H](C(=O)N[C@H](C(=O)N[C@H](C(=O)N[C@@H](CCC(N)=O)C(=O)N[C@@H](CCCCN)C(=O)N[C@@H](CC(C)C)C(=O)N[C@@H](C)C(=O)N[C@@H](Cc2c[nH]cn2)C(=O)N[C@@H](CCC(N)=O)C(=O)N[C@H](C(=O)N[C@@H](Cc2ccc(O)cc2)C(=O)N[C@@H](CCC(N)=O)C(=O)N[C@@H](Cc2ccccc2)C(=O)N[C@H](C(=O)N[C@@H](CC(=O)O)C(=O)N[C@@H](CCCCN)C(=O)N[C@@H](CC(=O)O)C(=O)N[C@@H](CCCCN)C(=O)N[C@@H](CC(=O)O)C(=O)N[C@@H](CC(N)=O)C(=O)N[C@@H](CO)C(=O)N[C@@H](C)C(=O)N2CCC[C@H]2C(=O)N[C@H](C(=O)N[C@@H](CC(=O)O)C(=O)N2CCC[C@H]2C(=O)N[C@@H](CO)C(=O)N[C@@H](CO)C(=O)N2CCC[C@H]2C(=O)N[C@@H](Cc2c[nH]cn2)C(=O)N[C@@H](CO)C(=O)N[C@@H](Cc2ccc(O)cc2)C(N)=O)C(C)C)[C@@H](C)O)[C@@H](C)CC)C(C)C)[C@@H](C)O)NC(=O)[C@H]([C@@H](C)O)NC(=O)CNC(=O)[C@H](Cc2ccccc2)NC(=O)[C@H](CCCNC(=N)N)NC1=O [Analog B-1] | 54 | 143 | – | – | – | –
CCCCCCCCCCCCCCCC(=O)NCCCC[C@H](NC(=O)[C@@H](N)[C@@H](C)O)C(=O)N[C@@H](CCCCN)C(=O)N[C@H](C(=O)N[C@@H](CC(C)C)C(=O)N[C@@H](CCCNC(=N)N)C(=O)N[C@H](C(=O)NCC(=O)N[C@H]1CSSC[C@@H](C(=O)N[C@H](C(=O)N[C@H](C(=O)N[C@@H](CCC(N)=O)C(=O)N[C@@H](CCCCN)C(=O)N[C@@H](CC(C)C)C(=O)N[C@@H](C)C(=O)N[C@@H](Cc2c[nH]cn2)C(=O)N[C@@H](CCC(N)=O)C(=O)N[C@H](C(=O)N[C@@H](Cc2ccc(O)cc2)C(=O)N[C@@H](CCC(N)=O)C(=O)N[C@@H](Cc2ccccc2)C(=O)N[C@H](C(=O)N[C@@H](CC(=O)O)C(=O)N[C@@H](CCCCN)C(=O)N[C@@H](CC(=O)O)C(=O)N[C@@H](CCCCN)C(=O)N[C@@H](CC(=O)O)C(=O)N[C@@H](CC(N)=O)C(=O)N[C@@H](CO)C(=O)N[C@@H](C)C(=O)N2CCC[C@H]2C(=O)N[C@H](C(=O)N[C@@H](CC(=O)O)C(=O)N2CCC[C@H]2C(=O)N[C@@H](CO)C(=O)N[C@@H](CO)C(=O)N2CCC[C@H]2C(=O)N[C@@H](Cc2c[nH]cn2)C(=O)N[C@@H](CO)C(=O)N[C@@H](Cc2ccc(O)cc2)C(N)=O)C(C)C)[C@@H](C)O)[C@@H](C)CC)C(C)C)[C@@H](C)O)NC(=O)[C@H]([C@@H](C)O)NC(=O)CNC(=O)[C@H](Cc2ccccc2)NC(=O)[C@H](CCCNC(=N)N)NC1=O)[C@@H](C)O)[C@@H](C)O [Analog C-4] | – | – | 0.2 | 82 | 0.5 | 86
CCCCCCCCCCCCCCCC(=O)NCCCC[C@H](NC(=O)COCCOCCN)C(=O)NCC(=O)N[C@H]1CSSC[C@@H](C(=O)N[C@H](C(=O)N[C@H](C(=O)N[C@@H](CCC(N)=O)C(=O)N[C@@H](CCCCN)C(=O)N[C@@H](CC(C)C)C(=O)N[C@@H](C)C(=O)N[C@@H](Cc2c[nH]cn2)C(=O)N[C@@H](CCC(N)=O)C(=O)N[C@H](C(=O)N[C@@H](Cc2ccc(O)cc2)C(=O)N[C@@H](CCC(N)=O)C(=O)N[C@@H](Cc2ccccc2)C(=O)N[C@H](C(=O)N[C@@H](CC(=O)O)C(=O)N[C@@H](CCCCN)C(=O)N[C@@H](CC(=O)O)C(=O)N[C@@H](CO)C(=O)N[C@@H](C)C(=O)N2CCC[C@H]2C(=O)N[C@H](C(=O)N[C@@H](CC(=O)O)C(=O)N2CCC[C@H]2C(=O)N[C@@H](CO)C(=O)N[C@@H](CO)C(=O)N2CCC[C@H]2C(=O)N[C@@H](Cc2c[nH]cn2)C(=O)N[C@@H](CO)C(=O)N[C@@H](Cc2ccc(O)cc2)C(N)=O)C(C)C)[C@@H](C)O)[C@@H](C)CC)C(C)C)[C@@H](C)O)NC(=O)[C@H]([C@@H](C)O)NC(=O)CNC(=O)[C@H](Cc2ccccc2)NC(=O)[C@H](CCCNC(=N)N)NC1=O [Analog D-1] (H-[AEEA]K(Palmitoyl)GCRFGTCTVQKLAHQIYQFTDKDSAPVDPSSPHSY-NH2; disulfide 4-9) | 78 | 77 | – | – | – | –
CSCC[C@H](NC(=O)CNC(=O)CNC(=O)[C@H](CO)NC(=O)[C@H](CCCNC(=N)N)NC(=O)[C@H](CO)NC(=O)[C@H](CC(C)C)NC(=O)[C@H](CC(C)C)NC(=O)CNC(=O)[C@H](C)NC(=O)[C@H](CC(C)C)NC(=O)[C@H](CCCNC(=N)N)NC(=O)[C@H](Cc1c[nH]cn1)NC(=O)[C@@H](NC(=O)[C@@H](NC(=O)[C@@H]1CSSC[C@H](NC(=O)[C@H](C)N)C(=O)N[C@@H](CC(N)=O)C(=O)N[C@@H]([C@@H](C)O)C(=O)N[C@@H](C)C(=O)N[C@@H]([C@@H](C)O)C(=O)N1)C(C)C)[C@@H](C)O)C(=O)N[C@H](C(=O)N[C@@H](CCCCN)C(=O)N[C@@H](CO)C(=O)N[C@@H](CC(N)=O)C(=O)N[C@@H](Cc1ccccc1)C(=O)N[C@H](C(=O)N1CCC[C@H]1C(=O)N[C@H](C(=O)N[C@@H](CC(N)=O)C(=O)N[C@H](C(=O)NCC(=O)N[C@@H](CO)C(=O)N[C@@H](CCCCN)C(=O)N[C@@H](C)C(=O)N[C@@H](Cc1ccccc1)C(N)=O)C(C)C)[C@@H](C)O)C(C)C)C(C)C [CGRP, calcitonin gene-related peptide, reference compound] | – | – | – | 103 | – | –
CCCCCCCCCCCCCCCC(=O)NCCCC[C@H](NC(=O)COCCOCCN)C(=O)NCC(=O)N[C@H]1CSSC[C@@H](C(=O)N[C@H](C(=O)N[C@H](C(=O)N[C@@H](CCC(N)=O)C(=O)N[C@@H](CCCCN)C(=O)N[C@@H](CC(C)C)C(=O)N[C@@H](C)C(=O)N[C@@H](Cc2c[nH]cn2)C(=O)N[C@@H](CCC(N)=O)C(=O)N[C@H](C(=O)N[C@@H](Cc2ccc(O)cc2)C(=O)N[C@@H](CCC(N)=O)C(=O)N[C@@H](Cc2ccccc2)C(=O)N[C@H](C(=O)N[C@@H](CC(=O)O)C(=O)N[C@@H](CCCCN)C(=O)N[C@@H](CC(=O)O)C(=O)N[C@@H](CCCCN)C(=O)N[C@@H](CC(=O)O)C(=O)N[C@@H](CC(N)=O)C(=O)N[C@H](C(=O)N[C@@H](C)C(=O)N2CCC[C@H]2C(=O)N[C@@H](CCCNC(=N)N)C(=O)N[C@@H](CO)C(=O)N[C@@H](CCCCN)C(=O)N[C@H](C(=O)N[C@@H](CO)C(=O)N2CCC[C@H]2C(=O)N[C@@H](CCC(N)=O)C(=O)NCC(=O)N[C@@H](Cc2ccc(O)cc2)C(N)=O)[C@@H](C)CC)C(C)C)[C@@H](C)O)[C@@H](C)CC)C(C)C)[C@@H](C)O)NC(=O)[C@H]([C@@H](C)O)NC(=O)CNC(=O)[C@H](Cc2ccccc2)NC(=O)[C@H](CCCNC(=N)N)NC1=O [Analog C-7] | 70 | 147 | – | – | – | –
